# Experimental data published in patent publication US8710089B2, “Triazole derivatives as ghrelin analogue ligands of growth hormone secretagogue receptors” (Zentaris GmbH, priority 2005, dated 2014).
# Assays:
# [1] = system: GH concentration in the plasma of male rat pups; experiment: In vivo GH concentration in the plasma of male rat pups; parameters: species or system rat (Sprague-Dawley); conditions: rat pup plasma, killed 15 min later
# Protocol: IV) Assaying In Vivo GH Concentration in the Plasma of Male Rat Pups
# GH plasma concentrations of male rat pubs were assayed to characterize the modulation effect (antagonistic or agonistic) of the compounds of the invention being GHS receptor analogue ligands.
# In principle, assaying in vivo GH concentration in rat plasma was performed according to Torsello et al. (Eur. J. Pharmacol. 1998, 360: 123-129).
# Male Sprague-Dawley rat pups (Charles River, Calco, Italy) were separated on postnatal day seven from their mothers and randomly redistributed to the dams, so that each one nurtured ten to twelve pups. On postnatal day ten, the pups were again separated from their mothers.
# The compounds to be tested were dissolved in solvent [DMSO (0.4% of total volume), distilled water (4% of total volume), brought to the final volume with physiological saline].
# One hour after separation from their mothers, the pups were given isovolumetric amounts of the compounds to be tested (160 μg/kg body weight s.c.) at time −10 min and then administered with hexarelin (80 μg/kg body weight s.c.) or solvent at time 0 min before being killed 15 min later by decapitation. Trunk blood was collected, immediately centrifuged and plasma samples were stored at −20° C. until assayed for the determination of GH concentrations.
# Plasma GH concentrations were measured using a rat growth hormone enzyme immunoassay kit (SPIbio, France, cat. no. 589601) according to the manufacturer's instructions. Values are expressed in terms of NIDDK rat-GH-RP2 standard (potency 2 IU/mg) as ng/mL of plasma
# The limit of detection calculated as the concentration producing 15% displacement of initial tracer was 0.5 ng/ml; intra-assay and inter-assay coefficient of variation are 4% (n=24) and 14% (n=9).
# In the following table 3 results obtained for selected compounds of the invention are presented.
# [2] = target: T1, Motilin-Receptor 1a (MTL-R1a) (Homo sapiens, UniProt O43193); experiment: Motilin receptor-ligand binding assay (human recombinant HEK-293 cells); conditions: 0.1 nM [125I] Motilin, read-out: MTL-R 1a IC50
# T1 construct: expressed in transfected cells; host or cells: HEK-293 cells
# T1 sequence (O43193 whole entry): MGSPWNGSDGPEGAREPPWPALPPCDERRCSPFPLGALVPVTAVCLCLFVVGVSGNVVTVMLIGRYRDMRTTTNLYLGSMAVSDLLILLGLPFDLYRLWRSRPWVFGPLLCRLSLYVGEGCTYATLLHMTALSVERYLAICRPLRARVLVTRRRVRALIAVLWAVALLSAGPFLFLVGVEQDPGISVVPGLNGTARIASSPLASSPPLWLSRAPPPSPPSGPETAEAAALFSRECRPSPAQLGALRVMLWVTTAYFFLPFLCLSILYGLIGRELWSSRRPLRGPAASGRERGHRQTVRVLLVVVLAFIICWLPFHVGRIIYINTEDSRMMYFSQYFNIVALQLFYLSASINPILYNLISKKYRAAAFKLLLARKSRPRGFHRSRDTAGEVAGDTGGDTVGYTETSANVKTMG
# Protocol: VI) Motilin Receptor-Ligand Binding Assay (Using Human Recombinant HEK-293 Cells)
# Motilin Receptor binding/affinity studies were performed as described by Feighner S D et al. (Science 1999, 284: 2184-2188). The assays were run under the following conditions:
# Compounds of the invention were tested in concentrations comprising 0.01 μM, 0.1 μM, 1 μM and 10 μM.
# IC50 values were determined by a non-linear, least square regression analysis using Data Analysis Toolbox (MDL Information Systems, USA).
# In the following table 5 results obtained for selected compounds of the invention are presented.
# [3] = target: T2, human GHS-R 1a (Homo sapiens, UniProt Q92847); experiment: GHS-R 1a receptor-ligand binding assay (membrane preparations from transfected LLC PK-1 cells); conditions: displacement of 125I-His9-ghrelin (60 pM); membranes of LLC PK-1 cells transfected with human GHS-R 1a; mean of at least two independent experiments in triplicates
# T2 construct: expressed in transfected cells; host or cells: LLC PK-1 porcine renal epithelial cells (ECACC No. 86121112), isolated plasma membranes
# T2 sequence (Q92847 whole entry): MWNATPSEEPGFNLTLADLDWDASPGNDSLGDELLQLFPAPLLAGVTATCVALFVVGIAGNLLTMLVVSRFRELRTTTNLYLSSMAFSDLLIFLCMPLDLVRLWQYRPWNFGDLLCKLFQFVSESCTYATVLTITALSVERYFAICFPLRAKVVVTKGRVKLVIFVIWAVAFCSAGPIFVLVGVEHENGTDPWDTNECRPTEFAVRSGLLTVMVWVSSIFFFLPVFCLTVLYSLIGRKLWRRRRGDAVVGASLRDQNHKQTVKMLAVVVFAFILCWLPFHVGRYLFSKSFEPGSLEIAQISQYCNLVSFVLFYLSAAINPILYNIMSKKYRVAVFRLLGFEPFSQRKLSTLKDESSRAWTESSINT
# How it was run: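 Membranes from LLC PK-1 cells expressing human GHS-R 1a incubated 60 min at 25 °C in 50 mM Tris pH 7.3, 5 mM MgCl2, 2.5 mM EDTA, bacitracin with 60 pM 125I-ghrelin and competitor; nonspecific binding with 10^-6 M ghrelin; filtration read-out.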
# [4] = system: young-adult male Sprague-Dawley rats; experiment: Feeding behavior (food intake) of young-adult male rats; assay type: in vivo, rat (Sprague-Dawley)
# Protocol: V) Assaying the Feeding Behavior (Food Intake) of Young-Adult Male Rats
# The impact of compounds of the invention being GHS receptor analogue ligands on the feeding behaviour, i.e. food intake, of young-adult male rats was assayed.
# In principle, assaying the feeding behavior (food intake) of young-adult male rats was performed according to Torsello et al. (Eur. J. Pharmacol. 1998, 360: 123-129).
# For the assay, young-adult male Sprague-Dawley rats (Charles River, Calco, Italy), weighing 200-250 g, were used.
# Rats had 1 week of acclimation in individual home cages, and animal room conditions (22±2° C., 65% humidity, artificial light from 08.00 to 20.00 h). The following week, they were daily trained to mimic the experimental procedure. Rats maintained free access to dry pellets and tap water throughout the whole experimental period. At the end of training, rats were administered (around 10.00-11.00 a.m.) subcutaneously with the compounds to be tested (160 μg/kg body weight) and/or hexarelin (80 μg/kg body weight) and/or solvent [DMSO (0.4% of total volume), distilled water (4% of total volume), brought to the final volume with physiological saline].
# Hexarelin was used to study the effects of the compounds to be tested on stimulated feeding behavior. Immediately after the injections, the animals were returned to their home cages, which contained a known amount of standard rat chow and ad libitum water. Every hour for the following 6 hours, the remaining food was carefully collected and weighed to the nearest 0.1 g. Food intake was normalized for the body weight of the rats and expressed as grams of food eaten per 100 g body weight of rats.
# In the following table 4 results obtained for selected compounds of the invention are presented.
# [5] = compound 160 μg/kg s.c. at -10 min + hexarelin 80 μg/kg s.c. at 0 min
# [6] = compound alone 160 μg/kg body weight s.c. at -10 min, solvent at 0 min
# [7] = compound 160 μg/kg s.c. + hexarelin 80 μg/kg s.c.
# [8] = compound alone, 160 μg/kg body weight s.c.
Compound,"GH concentration [1, 5]","GH concentration [1, 6]",IC50 [2],IC50 [3],"Cumulative food intake (after 2 hours) [4, 7]","Cumulative food intake (after 6 hours) [4, 7]","Cumulative food intake (after 2 hours) [4, 8]","Cumulative food intake (after 6 hours) [4, 8]"
"COc1ccc(Cn2c(CCc3ccccc3)nnc2[C@@H](Cc2c[nH]c3ccccc23)NC(=O)c2ccccn2)c(OC)c1 [compound 64, (R)—N-(1-(4-(2,4-dimethoxybenzyl)-5-phenethyl-4H-1,2,4-triazol-3-yl)-2-(1H-indol-3-yl)ethyl)picolinamide]",138.394 ± 14.580 ng/mL,13.056 ± 2.169 ng/mL,1390 nM,1.1 nM,0.012 ± 0.004 g food/100 g body weight,0.021 ± 0.007 g food/100 g body weight,0.012 ± 0.008 g food/100 g body weight,0.039 ± 0.011 g food/100 g body weight
"COc1ccc(Cn2c(CCCc3ccccc3)nnc2[C@@H](Cc2c[nH]c3ccccc23)NC(=O)C(C)(C)N)cc1 [compound 22, (R)—N-(1-(4-(4-methoxybenzyl)-5-(3-phenylpropyl)-4H-1,2,4-triazol-3-yl)-2-(1H-indol-3-yl)ethyl)-2-amino-2-methylpropanamide]",239.91 ± 19.75 ng/mL,4.88 ± 0.33 ng/mL,,12 nM,0.67 ± 0.12 g food/100 g body weight,0.86 ± 0.18 g food/100 g body weight,0.01 g food/100 g body weight,0.44 ± 0.2 g food/100 g body weight
COc1ccc(Cn2c(CCc3c[nH]c4ccccc34)nnc2[C@@H](Cc2c[nH]c3ccccc23)NC(=O)C2CNCCN2)cc1 (stereo partly shown) [compound 81],216.575 ± 19.734 ng/mL,18.634 ± 2.933 ng/mL,,18 nM,0.024 ± 0.0101 g food/100 g body weight,0.116 ± 0.077 g food/100 g body weight,0.017 ± 0.004 g food/100 g body weight,0.03 ± 0 g food/100 g body weight
"COc1ccc(Cn2c(CCc3ccccc3)nnc2[C@@H](Cc2c[nH]c3ccccc23)NC(=O)[C@H]2CCCN2)cc1 [compound 47, (R)—N—((R)-1-(4-(4-methoxybenzyl)-5-phenethyl-4H-1,2,4-triazol-3-yl)-2-(1H-indol-3-yl)ethyl)pyrrolidine-2-carboxamide]",160.857 ± 13.52 ng/mL,5.658 ± 1.192 ng/mL,,27 nM,0.35 ± 0.201 g food/100 g body weight,0.47 ± 0.1943 g food/100 g body weight,0.006 ± 0.002 g food/100 g body weight,0.02 ± 0 g food/100 g body weight
"COc1ccc(Cn2c(CCc3c[nH]c4ccccc34)nnc2[C@@H](Cc2c[nH]c3ccccc23)NC(=O)C(C)(C)N)c(OC)c1 [compound 1, (R)—N-(1-(5-(2-(1H-indol-3-yl)ethyl)-4-(2,4-dimethoxybenzyl)-4H-1,2,4-triazol-3-yl)-2-(1H-indol-3-yl)ethyl)-2-amino-2-methylpropanamide]",80.22 ± 18.66 ng/mL,,,160 nM,0.06 ± 0.02 g food/100 g body weight,0.33 ± 0.21 g food/100 g body weight,0.02 ± 0.002 g food/100 g body weight,0.06 ± 0.03 g food/100 g body weight
"COc1ccc(Cn2c(CCc3c[nH]c4ccccc34)nnc2[C@@H](Cc2c[nH]c3ccccc23)NC(=O)c2cnccn2)c(OC)c1 [compound 71, (R)—N-(1-(5-(2-(1H-indol-3-yl)ethyl)-4-(2,4-dimethoxybenzyl)-4H-1,2,4-triazol-3-yl)-2-(1H-indol-3-yl)ethyl)pyrazine-2-carboxamide]",173.611 ± 18.444 ng/mL,15.326 ± 1.355 ng/mL,,19 nM,0.117 ± 0.074 g food/100 g body weight,0.20 ± 0.01 g food/100 g body weight,0.522 ± 0.283 g food/100 g body weight,0.53 ± 0.28 g food/100 g body weight
"COc1ccc(Cn2c(CCc3c[nH]c4ccccc34)nnc2[C@@H](Cc2c[nH]c3ccccc23)NC(=O)[C@H]2CCCN2)cc1 [compound 90, (R)—N—((R)-1-(5-(2-(1H-indol-3-yl)ethyl)-4-(4-methoxybenzyl)-4H-1,2,4-triazol-3-yl)-2-(1H-indol-3-yl)ethyl)pyrrolidine-2-carboxamide]",218.844 ± 19.723 ng/mL,16.857 ± 2.152 ng/mL,,28 nM,0.054 ± 0.041 g food/100 g body weight,0.069 ± 0.041 g food/100 g body weight,0.014 ± 0.001 g food/100 g body weight,0.035 ± 0.003 g food/100 g body weight
